# Test system: VEGF-stimulated HUVEC proliferation (Human Umbilical Vein Endothelial cells)
# Experiment: HUVEC Proliferation Assay
# Type: cell-based
# Settings: 72 h, CyQuant dye, read-out: inhibited VEGF-stimulated HUVEC proliferation at a level (IC50 values determined)
# Protocol: Human Umbilical Vein Endothelial cells are purchased from Clonetics, Inc., as cryopreserved cells harvested from a pool of donors. These cells, at passage 1, are thawed and expanded in EBM-2 complete medium, until passage 2 or 3. The cells are trypsinized, washed in DMEM+10% FBS+antibiotics, and spun at 1000 rpm for 10 min. Prior to centrifugation of the cells, a small amount is collected for a cell count. After centrifugation, the medium is discarded, and the cells are resuspended in the appropriate volume of DMEM+10% FBS+antibiotics to achieve a concentration of 3×10^5 cells/mL. Another cell count is performed to confirm the cell concentration. The cells are diluted to 3×10^4 cells/mL in DMEM+10% FBS+antibiotics, and 100 μL of cells are added to a 96-well plate. The cells are incubated at 37° C. for 22 h.
# Prior to the completion of the incubation period, compound dilutions are prepared. Five-point, five-fold serial dilutions are prepared in DMSO, at concentrations 400-fold greater than the final concentrations desired. 2.5 μL of each compound dilution are diluted further in a total of 1 mL DMEM+10% FBS+antibiotics (400× dilution). Medium containing 0.25% DMSO is also prepared for the 0 μM compound sample. At the 22 h timepoint, the medium is removed from the cells, and 100 μL of each compound dilution is added. The cells are incubated at 37° C. for 2-3 h.
# During the compound pre-incubation period, the growth factors are diluted to the appropriate concentrations. Solutions of DMEM+10% FBS+antibiotics, containing either VEGF or bFGF at the following concentrations: 50, 10, 2, 0.4, 0.08, and 0 ng/mL are prepared. For the compound-treated cells, solutions of VEGF at 550 ng/mL or bFGF at 220 ng/mL for 50 ng/mL or 20 ng/mL final concentrations, respectively, are prepared since 10 μL of each will be added to the cells (110 μL final volume). At the appropriate time after adding the compounds, the growth factors are added. VEGF is added to one set of plates, while bFGF is added to another set of plates. For the growth factor control curves, the media on wells B4-G6 of plates 1 and 2 are replaced with media containing VEGF or bFGF at the varying concentrations (50-0 ng/mL). The cells are incubated at 37° C. for an additional 72 h.
# At the completion of the 72 h incubation period, the medium is removed, and the cells are washed twice with PBS. After the second wash with PBS, the plates are tapped gently to remove excess PBS, and the cells are placed at −70° C. for at least 30 min. The cells are thawed and analyzed using the CyQuant fluorescent dye (Molecular Probes C-7026), following the manufacturer's recommendations. The plates are read on a Victor/Wallac 1420 workstation at 485 nm/530 nm (excitation/emission). Raw data are collected and analyzed using a 4-parameter fit equation in XLFit. IC50 values are then determined.
row,SMILES,IC50
1,"CC(Nc1ccccc1C(=O)Nc1ccc2c(c1)CNCC2(C)C)c1ccnc(N)n1 (stereo not drawn) [Example 127, 2-[1-(2-Amino-pyrimidin-4-yl)-ethylamino]-N-(4,4-dimethyl-1,2,3,4-tetrahydro-isoquinolin-7-yl)-benzamide]",< 100 nM
2,"CC1(C)CNCc2cc(NC(=O)c3cc(F)c(F)cc3NCc3ccc(F)cc3)ccc21 [Example 108, N-(4,4-Dimethyl-1,2,3,4-tetrahydro-isoquinolin-7-yl)-3,4-difluoro-6-(4-fluoro-benzylamino)-benzamide]",< 1000 nM
3,"CC1(C)CNCc2cc(NC(=O)c3ccccc3NCc3c[nH]c4ncccc34)ccc21 [Example 113, N-(4,4-Dimethyl-1,2,3,4-tetrahydro-isoquinolin-7-yl)-2-[(1H-pyrrolo [2,3-b]pyridin-3-ylmethyl)-amino]-benzamide]",< 1000 nM
4,"CC(Nc1ccccc1C(=O)Nc1ccc2c(c1)CN(C(=O)OC(C)(C)C)CC2(C)C)c1ccnc(N)n1 (stereo not drawn) [Example 126, tert-Butyl 7-{2-[1-(2-amino-pyrimidin-4-yl)-ethylamino]-benzoylamino}-4,4-dimethyl-3,4-dihydro-1H-isoquinoline-2-carboxylate]",< 1000 nM
5,"CNc1nccc([C@@H](C)Nc2ccccc2C(=O)Nc2ccc3c(c2)N(C(C)=O)CC32CC2)n1 [Example 132, N-(1-Acetyl-1′,2′-dihydrospiro[cyclopropane-1,3′-[3H]indol]-6′-yl)-2-[[(1R)-1-[2-(methylamino)-4-pyrimidinyl]ethyl]amino]-benzamide]",< 1000 nM
6,"CC1(C)CNCc2cc(NC(=O)c3ccc(F)cc3NCc3ccc(F)cc3)ccc21 [Example 107, N-(4,4-Dimethyl-1,2,3,4-tetrahydro-isoquinolin-7-yl)-4-fluoro-6-(4-fluoro-benzylamino)-benzamide]",< 1000 nM
7,"CC1(C)CNCc2cc(NC(=O)c3ccccc3NCc3cccc4nccnc34)ccc21 [Example 124, N-(4,4-Dimethyl-1,2,3,4-tetrahydro-isoquinolin-7-yl)-2-[(quinoxalin-5-ylmethyl)-amino]-benzamide]",< 1000 nM
8,"CNc1nccc([C@H](C)Nc2ccccc2C(=O)Nc2ccc3c(c2)CNCC3(C)C)n1 [Example 130, (S)—N-(4,4-Dimethyl-1,2,3,4-tetrahydro-isoquinolin-7-yl)-2-[1-(2-methylamino-pyrimidin-4-yl)-ethylamino]-benzamide]",< 1000 nM
9,"CC(=O)N1CC(C)(C)c2ccc(NC(=O)c3ccccc3NCc3cc[n+]([O-])cc3)cc21 [Example 10, N-(1-Acetyl-3,3-dimthyl-2,3-dihydro-1H-indol-6-yl)-2-[(1-oxy-pyridin-4-ylmethyl)-amino]-benzamide]",< 1000 nM
10,"CN1CCN(C(=O)N2CC(C)(C)c3ccc(NC(=O)c4ccccc4NCc4ccc(F)cc4)cc32)CC1 [Example 8, N-[3,3-Dimethyl-1-(4-methyl-piperazine-1-carbonyl)-2,3-dihydro-1H-indol-6-yl]-2-(4-fluoro-benzylamino)-benzamide]",< 1000 nM
11,"CC(=O)N1CC(C)(C)c2ccc(NC(=O)c3ccccc3NCc3ccc(F)cc3)cc21 [Example 3, N-(1-Acetyl-3,3-dimethyl-2,3-dihydro-1H-indol-6-yl)-2-(4-fluoro-benzylamino)-benzamide]",< 1000 nM
12,"CC(=O)N1Cc2cc(NC(=O)c3ccccc3NCc3ccnc4ccccc34)ccc2C(C)(C)C1 [Example 13, N-(2-Acetyl-4,4-dimthyl-1,2,3,4-tetrahydro-isoquinolin-7-yl)-2-[(quinolin-4-ylmethyl)-amino]-benzamide]",< 1000 nM

# From patent US7307088B2, “Substituted anthranilic amide derivatives and methods of use” (Amgen Inc., priority 2002, dated 2007)
